# In PubChem BioAssay AID1745844 (Carcinogenic Potency Database (CPDB), 2022):
# Activity calls are given as the source filed them. No rule for the calls is given here.
# System: rodent lifetime carcinogenesis bioassay, tumor incidence TD50
# Assay: carcinogenic potency in animals, long-term in vivo studies, CPDB compilation (AID 1745844)
compound,measurement,setting,value
CC1(C)COC1=O,TD50,"mouse, strain B6C3F1, females, by gavage, site: any site (literature study), lesion: several types, types named in the paper, dosed 102 weeks, study length 103 weeks",179 mg/kg/day (inactive)
same,TD50,"mouse, strain B6C3F1, females, by gavage, site: lung, lesion: alveolar/bronchiolar adenoma + alveolar/bronchiolar carcinoma, dosed 102 weeks, study length 103 weeks",482 mg/kg/day
same,carcinogen call,"mouse, strain B6C3F1, males, by gavage, site: any site (literature study), lesion: several types, types named in the paper, dosed 102 weeks, study length 103 weeks",negative (inactive)
same,TD50,"mouse, strain B6C3F1, males, by gavage, site: lung, lesion: alveolar/bronchiolar adenoma + alveolar/bronchiolar carcinoma, dosed 102 weeks, study length 103 weeks",435 mg/kg/day
same,TD50,"rat, strain Fischer 344, females, by gavage, site: any site (literature study), lesion: several types, types named in the paper, dosed 103 weeks, study length 105 weeks",200 mg/kg/day
same,TD50,"rat, strain Fischer 344, females, by gavage, site: stomach, lesion: squamous-cell carcinoma + squamous-cell papilloma, dosed 103 weeks, study length 105 weeks",333 mg/kg/day
same,TD50,"rat, strain Fischer 344, males, by gavage, site: any site (literature study), lesion: several types, types named in the paper, dosed 103 weeks, study length 105 weeks",181 mg/kg/day
same,TD50,"rat, strain Fischer 344, males, by gavage, site: liver, lesion: hepatocellular adenoma + hepatocellular carcinoma + neoplastic nodule, dosed 103 weeks, study length 105 weeks",850 mg/kg/day
same,TD50,"rat, strain Fischer 344, males, by gavage, site: stomach, lesion: squamous-cell carcinoma + squamous-cell papilloma, dosed 103 weeks, study length 105 weeks",154 mg/kg/day
same,TD50,"rat, strain Fischer 344, males, by gavage, site: stomach, lesion: squamous-cell carcinoma, dosed 103 weeks, study length 105 weeks",532 mg/kg/day
C/C=C1/C[C@@H](C)[C@@](C)(O)C(=O)OC/C2=C/CN(C)CC[C@@H](OC1=O)C2=O,TD50,"rat, strain ACI, males, i.p., site: liver, lesion: liver-cell adenoma, dosed 56 weeks, study length 92 weeks",1.7 mg/kg/day
O=C(O)c1cc(Oc2ccc(C(F)(F)F)cc2Cl)ccc1[N+](=O)[O-],TD50,"mouse, strain B6C3F1, females, in feed, site: liver, lesion: hepatocellular adenoma, dosed 78 weeks, study length 78 weeks",434 mg/kg/day
same,TD50,"mouse, strain B6C3F1, females, in feed, site: liver, lesion: hepatocellular carcinoma, dosed 78 weeks, study length 78 weeks",1380 mg/kg/day
same,TD50,"mouse, strain B6C3F1, females, in feed, site: liver, lesion: several types, types named in the paper, dosed 78 weeks, study length 78 weeks",328 mg/kg/day
same,TD50,"mouse, strain B6C3F1, females, in feed, site: stomach, lesion: papilloma, dosed 78 weeks, study length 78 weeks",1050 mg/kg/day
same,TD50,"mouse, strain B6C3F1, males, in feed, site: liver, lesion: hepatocellular adenoma, dosed 78 weeks, study length 78 weeks",331 mg/kg/day
same,TD50,"mouse, strain B6C3F1, males, in feed, site: liver, lesion: hepatocellular carcinoma, dosed 78 weeks, study length 78 weeks",395 mg/kg/day
same,TD50,"mouse, strain B6C3F1, males, in feed, site: liver, lesion: several types, types named in the paper, dosed 78 weeks, study length 78 weeks",149 mg/kg/day
same,TD50,"mouse, strain B6C3F1, males, in feed, site: stomach, lesion: papilloma, dosed 78 weeks, study length 78 weeks",2050 mg/kg/day
same,TD50,"mouse, strain Charles River CD1, females, in feed, site: liver, lesion: hepatocellular adenoma, dosed 104 weeks, study length 104 weeks",160 mg/kg/day
same,TD50,"mouse, strain Charles River CD1, females, in feed, site: liver, lesion: hepatocellular carcinoma, dosed 104 weeks, study length 104 weeks",715 mg/kg/day
same,TD50,"mouse, strain Charles River CD1, females, in feed, site: liver, lesion: several types, types named in the paper, dosed 104 weeks, study length 104 weeks",126 mg/kg/day
same,TD50,"mouse, strain Charles River CD1, males, in feed, site: liver, lesion: hepatocellular adenoma, dosed 104 weeks, study length 104 weeks",187 mg/kg/day
same,TD50,"mouse, strain Charles River CD1, males, in feed, site: liver, lesion: hepatocellular carcinoma, dosed 104 weeks, study length 104 weeks",307 mg/kg/day
same,TD50,"mouse, strain Charles River CD1, males, in feed, site: liver, lesion: several types, types named in the paper, dosed 104 weeks, study length 104 weeks",93.8 mg/kg/day
